For this experiment, the target named is human mGluR4 (Homo sapiens, UniProt Q14833). Briefly: potentiation of human mGluR4 in transfected CHO cells, Ca2+-sensitive dye fluorescence, EC20 agonist. The settings on record: for Emax: CHO, read-out: % Glu Max.
Where [1] appears, read: EC50 (nM), potentiation of EC20 agonist response, Table I.
The mark [2] stands for this setting: hEC50, human mGluR4 potentiation, unit inferred.

human mGluR4, sequence (Q14833 33-912): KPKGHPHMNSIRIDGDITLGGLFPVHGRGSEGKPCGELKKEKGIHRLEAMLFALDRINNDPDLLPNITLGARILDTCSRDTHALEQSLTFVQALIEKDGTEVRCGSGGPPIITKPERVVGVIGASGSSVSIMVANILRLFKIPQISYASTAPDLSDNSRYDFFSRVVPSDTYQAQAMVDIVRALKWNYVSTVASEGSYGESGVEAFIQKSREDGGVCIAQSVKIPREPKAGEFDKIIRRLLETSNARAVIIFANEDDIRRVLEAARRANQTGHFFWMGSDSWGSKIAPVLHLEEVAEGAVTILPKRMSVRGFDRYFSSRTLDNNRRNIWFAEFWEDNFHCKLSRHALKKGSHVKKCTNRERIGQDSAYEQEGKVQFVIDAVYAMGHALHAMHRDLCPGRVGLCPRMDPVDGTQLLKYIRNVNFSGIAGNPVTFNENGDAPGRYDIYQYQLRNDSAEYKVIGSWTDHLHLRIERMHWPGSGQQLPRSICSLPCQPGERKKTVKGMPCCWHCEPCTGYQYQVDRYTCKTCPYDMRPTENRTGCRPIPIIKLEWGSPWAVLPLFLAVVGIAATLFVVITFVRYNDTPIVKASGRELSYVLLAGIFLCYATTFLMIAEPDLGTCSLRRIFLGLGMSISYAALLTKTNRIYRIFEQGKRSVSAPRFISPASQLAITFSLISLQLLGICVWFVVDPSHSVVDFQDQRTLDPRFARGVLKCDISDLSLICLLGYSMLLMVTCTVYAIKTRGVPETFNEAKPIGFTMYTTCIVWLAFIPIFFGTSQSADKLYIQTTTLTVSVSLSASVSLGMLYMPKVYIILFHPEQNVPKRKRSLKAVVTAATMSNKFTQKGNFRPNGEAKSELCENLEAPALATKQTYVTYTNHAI

On to `O=C(Nc1ccn(S(=O)(=O)Cc2ccccc2)c1)c1ccco1` [Example 1, N-(1-(benzylsulfonyl)-1H-pyrrol-3-yl)furan-2-carboxamide], for which the Emax came out at 227%. Besides, the EC50 (in general, the concentration that produces a half-maximal response) under setting [1] was found to be 6410 nM.
As for `O=C(Nc1ccn(S(=O)(=O)Cc2ccccc2)c1)c1ccccn1` [Example 2, N-(1-(benzylsulfonyl)-1H-pyrrol-3-yl)picolinamide], the Emax was determined as 275%. In addition, under setting [1], the EC50 was determined as 562 nM.
Taken in the same sequence, the figures for `COc1cccc(C(=O)Nc2ccn(S(=O)(=O)Cc3ccccc3)c2)c1` [Example 3, N-(1-(benzylsulfonyl)-1H-pyrrol-3-yl)-3-methoxybenzamide] were 39% and above 20000 nM.
With `O=C(Nc1ccn(S(=O)(=O)c2ccccc2)c1)c1ccccn1` [Example 4, N-(1-(phenylsulfonyl)-1H-pyrrol-3-yl)picolinamide], the Emax was 59%. The EC50 under setting [1] stood at 280 nM.
Taken in the same sequence, the figures for `O=C(Nc1ccn(S(=O)(=O)c2ccccc2)c1)c1ccccc1` [Example 5, N-(1-(phenylsulfonyl)-1H-pyrrol-3-yl)benzamide] were 93% and 8170 nM.
For `O=C(Nc1ccn(S(=O)(=O)Cc2ccccc2)c1)c1ccccc1` [Example 6, N-(1-(benzylsulfonyl)-1H-pyrrol-3-yl)benzamide], the Emax worked out at 55%. Under setting [1], the EC50 amounted to 951 nM.
The like results for `O=C(Nc1ccn(S(=O)(=O)c2ccccc2F)c1)c1ccccn1` [Example 8] were, in that order, 116% and 174 nM.
Regarding `Cc1ccccc1S(=O)(=O)n1ccc(NC(=O)c2ccccn2)c1` [Example 9], the Emax amounted to 67%. Moreover, under setting [1], the EC50 came to 198 nM.
Take `O=C(Nc1ccn(S(=O)(=O)c2ccccc2C(F)(F)F)c1)c1ccccn1` [Example 10]: the Emax amounted to 101%. Moreover, the EC50 under setting [1] came out at 526 nM.
Take `O=C(Nc1ccn(S(=O)(=O)c2ccccc2Cl)c1)c1ccccn1` [Example 11]: the Emax amounted to 91%. In addition, the EC50 under setting [1] amounted to 222 nM.
As to `N#Cc1cccc(CS(=O)(=O)n2ccc(NC(=O)c3ccccn3)c2)c1` [Example 26], the Emax was 141%. Further, the EC50 under setting [1] was found to be 5080 nM.
With `O=C(Nc1ccn(S(=O)(=O)Cc2ccc(Cl)c(Cl)c2)c1)c1ccccn1` [Example 34], the Emax was found to be 159%.
`O=C(Nc1ccn(S(=O)(=O)c2ccc3ccccc3c2)c1)c1ccccn1` [Example 36]: the Emax was 58%. Besides, the EC50 under setting [1] was above 10000 nM.
In the case of `O=C(Nc1ccn(S(=O)(=O)Cc2ccccc2)c1)c1cc(F)ccn1` [Example 39, N-(1-(benzylsulfonyl)-1H-pyrrol-3-yl)-4-fluoropicolinamide], the Emax stood at 35%. Moreover, the EC50 under setting [1] is 369 nM.
Take `O=C(Nc1ccn(S(=O)(=O)CCc2ccccc2)c1)c1ccccn1` [Example 40, N-(1-(phenethylsulfonyl)-1H-pyrrol-3-yl)picolinamide]: the Emax was 152%. For the same molecule, the EC50 under setting [1] was determined as 483 nM.
For the molecule `O=C(Nc1ccn(S(=O)(=O)Cc2ccccc2)c1)c1cccc(F)n1` [Example 41, N-(1-(benzylsulfonyl)-1H-pyrrol-3-yl)-6-fluoropicolinamide], the Emax was 76%. Moreover, the EC50 under setting [1] worked out at 574 nM.
For the molecule `O=C(Nc1ccn(S(=O)(=O)Cc2ccccc2)c1)c1cscn1` [Example 42, N-(1-(benzylsulfonyl)-1H-pyrrol-3-yl)thiazole-4-carboxamide], the Emax amounted to 129%. For the same molecule, under setting [1], the EC50 was 4620 nM.
`Cc1cccc(C(=O)Nc2ccn(S(=O)(=O)Cc3ccccc3)c2)n1` [Example 43, N-(1-(benzylsulfonyl)-1H-pyrrol-3-yl)-6-methylpicolinamide]: the Emax was 90%. Also, the EC50 under setting [1] was determined as 9540 nM.
Taken in the same sequence, the figures for `O=C(Nc1ccn(S(=O)(=O)Cc2ccccc2)c1)c1nccs1` [Example 44, N-(1-(benzylsulfonyl)-1H-pyrrol-3-yl)thiazole-2-carboxamide] were 175% and 4380 nM.
In the case of `O=C(Nc1ccn(S(=O)(=O)Cc2ccccc2)c1)c1ccncn1` [Example 45, N-(1-(benzylsulfonyl)-1H-pyrrol-3-yl)pyrimidine-4-carboxamide], the Emax was 57%. In addition, under setting [1], the EC50 is above 20000 nM.
Regarding `Cc1ccc(CS(=O)(=O)n2ccc(NC(=O)c3ccccn3)c2)cc1` [Example 47, N-(1-((4-methylbenzyl)sulfonyl)-1H-pyrrol-3-yl)picolinamide], the EC50 under setting [2] amounted to 280 nM.
Same read-out and setting: then `O=C(Nc1ccn(S(=O)(=O)c2ccccc2)c1)c1nccs1` [Example 50, N-(1-(phenylsulfonyl)-1H-pyrrol-3-yl)thiazole-2-carboxamide], with 2680 nM; and `O=C(Nc1ccn(S(=O)(=O)Cc2ccccc2Cl)c1)c1nccs1` [Example 52, N-(1-((2-chlorobenzyl)sulfonyl)-1H-pyrrol-3-yl)thiazole-2-carboxamide], with 767 nM.
On to `Cc1cccc(S(=O)(=O)n2ccc(NC(=O)c3nccs3)c2)c1` [Example 53, N-(1-(m-tolylsulfonyl)-1H-pyrrol-3-yl)thiazole-2-carboxamide], for which, under setting [2], the EC50 stood at 767 nM.
Turning to `CC(=O)Oc1ccccc1C(=O)Nc1ccn(S(=O)(=O)c2cccc(C)c2)c1` [Example 54, 2-((1-(m-tolylsulfonyl)-1H-pyrrol-3-yl)carbamoyl)phenyl acetate], the EC50 under setting [2] is 1720 nM.
Regarding `O=C(Nc1ccn(S(=O)(=O)Cc2ccc(F)cc2F)c1)c1nccs1` [Example 55, N-(1-((2,4-difluorobenzyl)sulfonyl)-1H-pyrrol-3-yl)thiazole-2-carboxamide], the EC50 under setting [2] turned out to be 1910 nM.
In the case of `O=C(Nc1ccn(S(=O)(=O)Cc2ccc(F)cc2F)c1)c1ccco1` [Example 56, N-(1-((2,4-difluorobenzyl)sulfonyl)-1H-pyrrol-3-yl)furan-2-carboxamide], the EC50 under setting [2] was 3690 nM.
On to `O=C(Nc1ccn(S(=O)(=O)Cc2ccc(F)cc2Cl)c1)c1ccccn1` [Example 57, N-(1-((2-chloro-4-fluorobenzyl)sulfonyl)-1H-pyrrol-3-yl)picolinamide], for which the EC50 under setting [2] was 125 nM.
On the same count and under the same terms, then `CC(C)(C)c1ccc(S(=O)(=O)n2ccc(NC(=O)c3ccccn3)c2)cc1` [Example 58, N-(1-((4-(tert-butyl)phenyl)sulfonyl)-1H-pyrrol-3-yl)picolinamide], with 16800 nM; and `O=C(Nc1ccn(S(=O)(=O)c2ccc(F)c(F)c2)c1)c1ccccn1` [Example 59, N-(1-((3,4-difluorophenyl)sulfonyl)-1H-pyrrol-3-yl)picolinamide], with 379 nM.
`O=C(Nc1ccn(S(=O)(=O)Cc2ccc(F)cc2Cl)c1)c1nccs1` [Example 60, N-(1-((2-chloro-4-fluorobenzyl)sulfonyl)-1H-pyrrol-3-yl)thiazole-2-carboxamide]: the EC50 under setting [2] amounted to 132 nM.
For `O=C(Nc1ccn(S(=O)(=O)Cc2ccc(F)cc2Cl)c1)c1ccco1` [Example 61, N-(1-((2-chloro-4-fluorobenzyl)sulfonyl)-1H-pyrrol-3-yl)furan-2-carboxamide], the EC50 under setting [2] is 320 nM.
On to `O=C(Nc1ccn(S(=O)(=O)Cc2ccccc2Cl)c1)c1cscn1` [Example 62, N-(1-((2-chlorobenzyl)sulfonyl)-1H-pyrrol-3-yl)thiazole-4-carboxamide], for which the EC50 under setting [2] worked out at 492 nM.
The same measure, in the same setting: the value for `O=C(Nc1ccn(S(=O)(=O)Cc2ccccc2)c1)c1nccs1` [Example 63, N-(1-(benzylsulfonyl)-1H-pyrrol-3-yl)thiazole-2-carboxamide] was 2760 nM.

These data come from patent US20130040944A1, “MGLUR4 ALLOSTERIC POTENTIATORS, COMPOSITIONS, AND METHODS OF TREATING NEUROLOGICAL DYSFUNCTION” (VANDERBILT UNIVERSITY, priority 2009, published 2013).
